In the data set the target is IRF4. The settings on record: ASO.

Several values for one entry are separate records, joined by “and”; a condition that tells them apart may be missing. Equal values may be shown once. After the bases stand the sugars from the 5' end (letter, count) and the backbone: PS all phosphorothioate, else s phosphorothioate and o phosphodiester by linkage. Methylation of C is not given here. e = 2'-O-(2-methoxyethyl) (MOE); k = constrained ethyl (cEt); d = 2'-deoxy (DNA)

Regarding TGGTATTTTTCCGTTC (sugars k3 d10 k3, PS), the target mRNA inhibition came out at 6% (MM.1R, 0.0625 µM); 13% (MM.1R, 0.074 µM); 6% (MM.1R, 0.222 µM); 20% (MM.1R, 0.25 µM); 24% (MM.1R, 0.666 µM); 39% (MM.1R, 1 µM). For the same sequence, the target mRNA inhibition by setting is: (MM.1R, 2 µM) 51%; (MM.1R, 4 µM) 73%; (SK-MEL-28, 4 µM) 69%. For CATTTCATTTAATGTC (sugars k4 d8 k4, PS), the target mRNA inhibition (SK-MEL-28, 4 µM) amounted to 44%. For the sequence “GACACTTTTAGAGAGG (sugars kkddddddddddkeke, PS)”, the target mRNA inhibition (MM.1R, 1 µM) was found to be 9%.

As to GTCCGCCCCGCGCGGT (sugars k3 d10 k3, PS), the target mRNA inhibition (MM.1R, 1 µM) stood at 3%. “TGTAGTATGAGAAACG (sugars kkdddddddddkdkdk, PS)”: the target mRNA inhibition (MM.1R, 1 µM) was -6%. As for CCCACATGTCCCGTGG (sugars k3 d10 k3, PS), where the note is “SK-MEL-28, 4 µM”, the target mRNA inhibition came to 5%. For AGATTAATAGTAAGTT (sugars k3 d10 k3, PS), the target mRNA inhibition (SK-MEL-28, 4 µM) is 4%. GAATTCCAAACCTTAA (sugars k3 d10 k3, PS): the target mRNA inhibition (MM.1R, 1 µM) was 4%. For the sequence “GTGTGCTTGCCAAGCC (sugars kkdddddddddkekek, PS)”, the target mRNA inhibition (MM.1R, 1 µM) is 41% and 39%.

With ACCGCATTGCTAGATT (sugars k3 d10 k3, PS), the target mRNA inhibition (MM.1R, 1 µM) came out at 27%. Take CGGCAGTCTGCAAACA (sugars k3 d10 k3, PS): the target mRNA inhibition (MM.1R, 1 µM) came to 24%. TACATGGCAGTGGAGC (sugars k3 d10 k3, PS): the target mRNA inhibition (SK-MEL-28, 4 µM) was 71%. Still for that read-out and setting: next, GCTGCTCATTTCACTG (sugars k3 d10 k3, PS): 41%. On to CGGACACGCCCGACCC (sugars k3 d10 k3, PS), for which the target mRNA inhibition (MM.1R, 1 µM) stood at 7%. With GTACATCCTGAAGCCA (sugars k3 d10 k3, PS), the target mRNA inhibition (SK-MEL-28, 4 µM) came out at 26%. Consider GCATCTAAGGCAAGCT (sugars k3 d10 k3, PS), for which the target mRNA inhibition (SK-MEL-28, 4 µM) came out at 34%. Take CGTGATCTGAGACTAC (sugars k3 d10 k3, PS): the target mRNA inhibition (MM.1R, 1 µM) is 25% and 36%. As to GAGCATCCGCTTGGAG (sugars k3 d10 k3, PS), where the note is “SK-MEL-28, 4 µM”, the target mRNA inhibition amounted to 31%. CTAACAGATAACGAGG (sugars k3 d10 k3, PS): the target mRNA inhibition (SK-MEL-28, 4 µM) was determined as 23%. On to TCCTCCACTACCATAT (sugars k3 d10 k3, PS), for which the target mRNA inhibition (MM.1R, 1 µM) is -13%.

Regarding CGCTGAACTGAAATCT (sugars k3 d10 k3, PS), the target mRNA inhibition (SK-MEL-28, 4 µM) was 37%. As to ACATGGCAGTGGAGCT (sugars k3 d10 k3, PS), the target mRNA inhibition (SK-MEL-28, 4 µM) was 64%. Regarding ACCTACAAGCAGTCAT (sugars k3 d10 k3, PS), the target mRNA inhibition (SK-MEL-28, 4 µM) turned out to be 46%. For ACCAGAACTAATGTCC (sugars k3 d10 k3, PS), the target mRNA inhibition (SK-MEL-28, 4 µM) worked out at 32%. The same measure, in the same setting: next, CTGCATGAAAGTGTGT (sugars k3 d10 k3, PS): 56%. Turning to GACAATGTTGTATGAA (sugars k3 d10 k3, PS), under “SK-MEL-28, 4 µM”, the target mRNA inhibition came out at 72%. Still for that read-out and setting: to GCCAAGTAATTTTAAG (sugars k3 d10 k3, PS) belongs 35%. As for TCAGCAAGTGTCTTCC (sugars k3 d10 k3, PS), the target mRNA inhibition (SK-MEL-28, 4 µM) worked out at 66%.

In the case of CGGATAGATCTGTGGT (sugars k3 d10 k3, PS), the target mRNA inhibition is -25% (MM.1R, 0.0625 µM); -3% (MM.1R, 0.25 µM); 50% (MM.1R, 4 µM). In the case of GTCAAAAAGATGCAGA (sugars k3 d10 k3, PS), the target mRNA inhibition (SK-MEL-28, 4 µM) came to 50%.

As for AGGACACTCACAGGCG (sugars k3 d10 k3, PS), the target mRNA inhibition (MM.1R, 1 µM) is 8%. As for AACACCTGATCTTGCT (sugars k3 d10 k3, PS), the target mRNA inhibition (SK-MEL-28, 4 µM) was -10%.

For “CAGTTGTAAATGAGTC (sugars kkddddddddddkeke, PS)”, the target mRNA inhibition stood at 19% (MM.1R, 0.074 µM); 35% (MM.1R, 0.222 µM); 49% (MM.1R, 0.666 µM); 59% (MM.1R, 1 µM); 73% (MM.1R, 2 µM). For CTCACGAGCACCTCAG (sugars k3 d10 k3, PS), the target mRNA inhibition (SK-MEL-28, 4 µM) was found to be 42%.

Consider CATTAAAGAGTGGTAC (sugars k3 d10 k3, PS), for which, under “SK-MEL-28, 4 µM”, the target mRNA inhibition is -3%.

Consider TGATAAGGCACTACTT (sugars k3 d10 k3, PS), for which, for the setting “SK-MEL-28, 4 µM”, the target mRNA inhibition turned out to be 35%. For GTCACCTGGCAACCAT (sugars k3 d10 k3, PS), where the note is “SK-MEL-28, 4 µM”, the target mRNA inhibition stood at 41%. On to ATATCCTGTAGTATGA (sugars k3 d10 k3, PS), for which, for the setting “SK-MEL-28, 4 µM”, the target mRNA inhibition was found to be 57%. With GACTCGGAGCTGAGGG (sugars k3 d10 k3, PS), the target mRNA inhibition (SK-MEL-28, 4 µM) is 23%. Same read-out and setting: next, GGGCAGTCAATTGGAC (sugars k3 d10 k3, PS): 25%. As for “CAAGTGTCTAAAGTCC (sugars kkddddddddddkeke, PS)”, where the note is “MM.1R, 1 µM”, the target mRNA inhibition is 16% and 17%. As for CAAAGCATAGAGTCAC (sugars k3 d10 k3, PS), the target mRNA inhibition (SK-MEL-28, 4 µM) is 36%.

As for ATGTAGTTGTGAACCT (sugars k3 d10 k3, PS), the target mRNA inhibition (SK-MEL-28, 4 µM) worked out at 39%. Same read-out and setting: next, GCAGGTTTCATTTCAT (sugars k3 d10 k3, PS): 44%; GAGGAATGGCGGATAG (sugars k3 d10 k3, PS): 31%. Consider “TGATGTGATAGCTGAG (sugars kkdddddddddkekek, PS)”, for which the target mRNA inhibition (MM.1R, 1 µM) was -2%. Take ATGGCTAAACCTGGCA (sugars k3 d10 k3, PS): where the note is “MM.1R, 1 µM”, the target mRNA inhibition amounted to 22%. Consider ATCAGAATGTTTCGAC (sugars k3 d10 k3, PS), for which the target mRNA inhibition (SK-MEL-28, 4 µM) came out at 46%.

For the sequence ATCTGAGACTACACCT (sugars k3 d10 k3, PS), the target mRNA inhibition (MM.1R, 1 µM) is -8%. Take ATGCGAAGAATTTTAG (sugars k3 d10 k3, PS): where the note is “SK-MEL-28, 4 µM”, the target mRNA inhibition was determined as 21%. On to “GACACTTTTAGAGAGG (sugars kddddddddddkekek, PS)”, for which the target mRNA inhibition (MM.1R, 1 µM) came out at 23%. Regarding GCAGAGGGACCCACAC (sugars k3 d10 k3, PS), the target mRNA inhibition (SK-MEL-28, 4 µM) was determined as 21%. For “GTAGTATGAGAAACGG (sugars kdddddddddkekeke, PS)”, the target mRNA inhibition (MM.1R, 1 µM) was determined as 28%.

With TCTAATAAATGTGCTC (sugars k3 d10 k3, PS), the target mRNA inhibition (SK-MEL-28, 4 µM) was 44%.

For ATGCTGAACCCCACAG (sugars k3 d10 k3, PS), the target mRNA inhibition (MM.1R, 1 µM) was found to be 16%. For TGGCTGATAATTAATC (sugars k3 d10 k3, PS), the target mRNA inhibition (MM.1R, 1 µM) was -5%.

As for GGGTAAAGGAGTGCAG (sugars k3 d10 k3, PS), the target mRNA inhibition (SK-MEL-28, 4 µM) came to 19%. Regarding AAGCCGTTCCTTTTCA (sugars k3 d10 k3, PS), the target mRNA inhibition (SK-MEL-28, 4 µM) was found to be 29%.

For the sequence ACGCACACACAAGTGG (sugars k3 d10 k3, PS), the target mRNA inhibition (SK-MEL-28, 4 µM) worked out at 59%. Turning to ACACTGGATCTGAATT (sugars k3 d10 k3, PS), the target mRNA inhibition (SK-MEL-28, 4 µM) stood at 46%. Take TGCGAATGTGCCTTGT (sugars k3 d10 k3, PS): for the setting “SK-MEL-28, 4 µM”, the target mRNA inhibition was 43%. CCACAACTGCAGTTTG (sugars k3 d10 k3, PS): the target mRNA inhibition (SK-MEL-28, 4 µM) was 23%. On the same count and under the same terms, next, TGTTAGCTACAAAGAG (sugars k3 d10 k3, PS): 47%; CCTGGGACTCAGGTGG (sugars k4 d8 k4, PS): 7%; AACAGGCTATCAGGAT (sugars k3 d10 k3, PS): 17%. For “GACACTTTTAGAGAGG (sugars kdddddddddkekeke, PS)”, the target mRNA inhibition (MM.1R, 1 µM) came out at 9%. Turning to “TGGGATTATATACTGG (sugars kkdddddddddkdkdk, PS)”, the target mRNA inhibition (MM.1R, 1 µM) was found to be 25%. TGGGAATCCTTAATTA (sugars k3 d10 k3, PS): the target mRNA inhibition (SK-MEL-28, 4 µM) was 12%. Consider “ATTATATACTGGTTGG (sugars kddddddddddkekek, PS)”, for which the target mRNA inhibition (MM.1R, 1 µM) was found to be 22%. In the case of CCGTGATCTGAGACTA (sugars k3 d10 k3, PS), the target mRNA inhibition is 0% (MM.1R, 0.0625 µM); 13% (MM.1R, 0.25 µM); 45% and 30% (MM.1R, 1 µM); 71% (MM.1R, 4 µM). With AGAGGAATGAGCACTC (sugars k3 d10 k3, PS), for the setting “MM.1R, 1 µM”, the target mRNA inhibition amounted to 5%. As to GTACACCTCTTCACTA (sugars k3 d10 k3, PS), the target mRNA inhibition (SK-MEL-28, 4 µM) stood at 7%. Still for that read-out and setting: next, GCACAAGCATAAAAGG (sugars k3 d10 k3, PS): 16%. As to TCTGAGGGTCTGGAAA (sugars k3 d10 k3, PS), the target mRNA inhibition (SK-MEL-28, 4 µM) worked out at 9%. With GAAATCACGAGGTTGC (sugars k3 d10 k3, PS), the target mRNA inhibition by setting is: (MM.1R, 0.0625 µM) -6%; (MM.1R, 0.074 µM) -3%; (MM.1R, 0.222 µM) 16%; (MM.1R, 0.25 µM) 9%; (MM.1R, 0.666 µM) 22%; (MM.1R, 1 µM) 32%. Moreover, the target mRNA inhibition (MM.1R, 2 µM) worked out at 52%; the target mRNA inhibition (MM.1R, 4 µM) came to 64%; the target mRNA inhibition (SK-MEL-28, 4 µM) was 62%. For TACTAGGTGCTTGTTG (sugars k3 d10 k3, PS), the target mRNA inhibition (SK-MEL-28, 4 µM) was 49%. Consider “ACTGCTTGAGGTTTTC (sugars kkdddddddddkdkdk, PS)”, for which the target mRNA inhibition (MM.1R, 1 µM) came to 19%. For “GCATTTTATCATCCGA (sugars kkddddddddddkeke, PS)”, for the setting “MM.1R, 1 µM”, the target mRNA inhibition amounted to 39%.

For CGAAAACAGCCGCCGG (sugars k3 d10 k3, PS), the target mRNA inhibition (SK-MEL-28, 4 µM) was 15%. On to CCTGAGTTACCGCATT (sugars k3 d10 k3, PS), for which the target mRNA inhibition (MM.1R, 1 µM) amounted to 24%. In the case of GCTCCTGAGACAGACT (sugars k3 d10 k3, PS), where the note is “SK-MEL-28, 4 µM”, the target mRNA inhibition turned out to be 56%. With ATATAGTTGTCTGGCT (sugars k3 d10 k3, PS), the target mRNA inhibition (SK-MEL-28, 4 µM) turned out to be 41%. Consider “CAGTGACTTGCATCCA (sugars kkddddddddddkeke, PS)”, for which the target mRNA inhibition (MM.1R, 1 µM) turned out to be 33%.

For AAGAACTGCTGTGTGT (sugars k3 d10 k3, PS), under “SK-MEL-28, 4 µM”, the target mRNA inhibition is 12%.

On to GTAAATATCCTGTAGT (sugars k3 d10 k3, PS), for which the target mRNA inhibition (SK-MEL-28, 4 µM) stood at 33%.

(Values after the OligoGym collection.)
